Measurements reported in US20100137275A1 (IPSEN PHARMA S.A.S., priority 2007, published 2010).
Where two headings read alike, the source gives them in different places.

Experiments:
[1] = target: T1, purified recombinant Cdc25-C enzyme (MBP-Cdc25C protein) (Homo sapiens, UniProt P30307); assay: Phosphatase activity of the purified recombinant Cdc25C enzyme (OMFP dephosphorylation, fluorescence); assay type: biochemical; conditions: OMFP 500 μM, 4 hours at 30° C.
T1 construct: made in house
T1 sequence (P30307 1-473): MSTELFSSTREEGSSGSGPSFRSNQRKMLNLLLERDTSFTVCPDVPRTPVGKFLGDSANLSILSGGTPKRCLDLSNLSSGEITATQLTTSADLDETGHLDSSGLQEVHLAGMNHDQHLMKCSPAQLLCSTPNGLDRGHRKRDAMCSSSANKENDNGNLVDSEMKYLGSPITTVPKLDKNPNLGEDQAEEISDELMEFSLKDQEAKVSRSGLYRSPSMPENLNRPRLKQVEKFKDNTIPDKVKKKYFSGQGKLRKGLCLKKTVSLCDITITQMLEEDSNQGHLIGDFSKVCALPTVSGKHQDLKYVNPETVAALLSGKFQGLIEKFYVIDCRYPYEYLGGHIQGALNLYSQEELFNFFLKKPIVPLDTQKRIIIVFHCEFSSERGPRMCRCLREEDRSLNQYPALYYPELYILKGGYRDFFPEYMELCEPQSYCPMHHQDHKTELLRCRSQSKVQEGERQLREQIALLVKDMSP
Experimental: The phosphatase activity of the MBP-Cdc25C protein is evaluated through its dephosphorylation of 3-O-methylfluorescein-phosphate (OMFP) to form 3-O-methylfluorescein (OMF), determining the fluorescence of the reaction product at 475 nm. This assay can be used to identify inhibitors of the recombinant Cdc25 enzyme. The preparation of the MBP-Cdc25C fusion protein is described in patent application PCT WO 01/44467.
The reaction is performed in 384-well plates in a final volume of 50 μl. The MBP-Cdc25C protein (prepared as described hereinabove) is stored in the following elution buffer: 20 mM Tris-HCl pH 7.4; 250 mM NaCl; 1 mM EDTA; 1 mM dithiothreitol (DTT); 10 mM maltose. It is diluted to a concentration of 60 μM in the following reaction buffer: 50 mM Tris-HCl pH 8.2; 50 mM NaCl; 1 mM DTT; 20% glycerol. The background noise is determined using with the buffer without addition of the enzyme. The products are tested at decreasing concentrations from 40 μM. The reaction is initiated by the addition of a solution OMFP to a final concentration of 500 μM (prepared immediately before use from a 12.5 mM stock solution in 100% DMSO (Sigma #M2629)). After 4 hours at 30° C. in a disposable 384-well plate, the fluorescence measured at OD 475 nm is read on a Victor^2 plate reader (EGG-Wallac). The concentration that produces 50% inhibition of the enzyme reaction is calculated from three independent experiments. Only the values that fall within the linear part of the sigmoid curve are used for the linear regression analysis.

[2] = tested on: DU145 (human prostate cancer cells); assay: Anti-proliferative activity on DU-145 cell line (WST1 colorimetric test); assay type: cell-based; conditions: read-out: IC50 on the proliferation of the DU-145 cell line
Experimental: By way of an example, the effect of treating two human cell lines Mia-Paca2 and DU145 with the compounds of the examples described hereinbefore will be studied. The cell lines DU145 (human prostate cancer cells) and Mia-PaCa2 (human pancreas cancer cells) were obtained from the American Tissue Culture Collection (Rockville, Md., USA). A 96-well plate was inoculated on day 0 with cells placed in 80 μl of Dulbecco's modified Eagle's medium (Gibco-Brl, Cergy-Pontoise, France) with 10% heat-inactivated foetal calf serum (Gibco-Brl, Cergy-Pontoise, France), 50000 units/1 of penicillin and 50 mg/l of streptomycin (Gibco-Brl, Cergy-Pontoise, France), and 2 mM of glutamine (Gibco-Brl, Cergy-Pontoise, France). The cells were treated on day 1 with increasing concentrations of each test compound up to 10 μM for 96 hours. At the end of this period, cell proliferation is quantified by means of a colorimetric test based on cleavage of the tetrazolium salt WST1 by the mitochondrial dehydrogenases in the viable cells, resulting in formation of formazan (Boehringer Mannheim, Meylan, France). These tests are performed in duplicate with 8 determinations per concentration tested. For each compound to be tested, the values within the linear part of the sigmoid curve were subjected to linear regression analysis and used to estimate the IC50 inhibitory concentration. The products are solubilised in dimethylsulfoxide (DMSO) at a concentration of 10^−2 M and used in culture with a final DMSO concentration of 0.1%.

[3] = DU-145, 96 h, 96 hours treatment

Question: Which melting point does the source give for CN(CCNC(=O)Nc1cccs1)CCNc1cc(N2CCCC2)nc(N2CCCC2)n1 [Example 10, N-{2-[{2-[(2,6-dipyrrolidin-1-ylpyrimidin-4-yl)amino]ethyl}(methyl)amino]ethyl}-N′-2-thienylurea] here?
Answer: The melting point was 133 to 135 °C.

Question: And the IC50 [1]?
Answer: Its IC50 is at most 1 µM.

Question: What about the IC50 [2, 3] of the same compound?
Answer: The IC50 was at most 5 µM.

Question: With CN(CCNC(=O)N[C@@H]1CCc2ccccc2C1)CCNc1cc(N2CCCC2)nc(N2CCCC2)n1 [Example 11] as the compound, how does the IC50 [1] read?
Answer: The IC50 was at most 5 µM.

Question: What about the IC50 ([2]; DU-145, 96 hours treatment) of the same compound?
Answer: Its IC50 is at most 5 µM.

Question: With CN(CCNC(=S)Nc1ccc(C(F)(F)F)cc1)CCNc1cc(N2CCCC2)nc(N2CCCC2)n1 [Example 25, N-{2-[{2-[(2,6-dipyrrolidin-1-ylpyrimidin-4-yl)amino]ethyl}(methyl)amino]ethyl}-N′-[4-(trifluoromethyl)phenyl]thiourea] as the compound, how does the melting point read?
Answer: The melting point was 87 to 89 °C.

Question: And the IC50 [2, 3]?
Answer: Its IC50 is at most 5 µM.

Question: For CN(CCNC(=S)Nc1cc(F)cc(F)c1)CCNc1cc(N2CCCC2)nc(N2CCCC2)n1 [Example 41, N-(3,5-difluorophenyl)-N′-{2-[{2-[(2,6-dipyrrolidin-1-ylpyrimidin-4-yl)amino]ethyl}(methyl)amino]ethyl}thiourea], which melting point is on record?
Answer: The melting point was 124 to 126 °C.

Question: What about the IC50 [1] of the same compound?
Answer: Its IC50 is at most 5 µM.

Question: For CN(CCNC(=S)Nc1ccc([N+](=O)[O-])cc1)CCNc1cc(N2CCCC2)nc(N2CCCC2)n1 [Example 43, N-{2-[{2-[(2,6-dipyrrolidin-1-ylpyrimidin-4-yl)amino]ethyl}(methyl)amino]ethyl}-N′-(4-nitrophenyl)thiourea], which melting point is on record?
Answer: The melting point was 146 to 148 °C.

Question: What about the IC50 [1] of the same compound?
Answer: Its IC50 is at most 1 µM.

Question: With CN(CCNC(=S)Nc1ccc(Oc2ccc([N+](=O)[O-])cc2)cc1)CCNc1cc(N2CCCC2)nc(N2CCCC2)n1 [Example 45, N-{2-[{2-[(2,6-dipyrrolidin-1-ylpyrimidin-4-yl)amino]ethyl}(methyl)amino]ethyl}-N′-[4-(4-nitrophenoxy)phenyl]thiourea] as the compound, how does the IC50 [1] read?
Answer: Its IC50 is at most 5 µM.

Question: What about the IC50 [2, 3] of the same compound?
Answer: Its IC50 is at most 5 µM.

Question: What does the source list for CN(CCNC(=S)Nc1cccc([N+](=O)[O-])c1)CCNc1cc(N2CCCC2)nc(N2CCCC2)n1 [Example 49, N-{2-[{2-[(2,6-dipyrrolidin-1-ylpyrimidin-4-yl)amino]ethyl}(methyl)amino]ethyl}-N′-(3-nitrophenyl)thiourea]?
Answer: melting point: 125 to 127 °C; IC50 [1]: ≤ 1 µM

Question: For Cc1cc(C)nc(NS(=O)(=O)c2ccc(NC(=S)NCCN(C)CCNc3cc(N4CCCC4)nc(N4CCCC4)n3)cc2)n1 [Example 50, N-(4,6-dimethylpyrimidin-2-yl)-4-{[({2-[{2-[(2,6-dipyrrolidin-1-ylpyrimidin-4-yl)amino]ethyl}(methyl)amino]ethyl}amino)carbonothioyl]amino}benzenesulfonamide], which melting point is on record?
Answer: The melting point was 129 °C.

Question: And the IC50 [1]?
Answer: Its IC50 is at most 1 µM.

Question: Which melting point does the source give for CN(CCNC(=S)Nc1ccc(Sc2ncc(C(F)(F)F)cc2Cl)cc1)CCNc1cc(N2CCCC2)nc(N2CCCC2)n1 [Example 52, N-(4-{[3-chloro-5-(trifluoromethyl)pyridin-2-yl]thio}phenyl)-N′-{2-[{2-[(2,6-dipyrrolidin-1-ylpyrimidin-4-yl)amino]ethyl}(methyl)amino]ethyl}thiourea] here?
Answer: The melting point was 97 to 99 °C.

Question: What about the IC50 [1] of the same compound?
Answer: The IC50 was at most 1 µM.

Question: With CN(CCNC(=S)Nc1ccc(Cl)c(C(F)(F)F)c1)CCNc1cc(N2CCCC2)nc(N2CCCC2)n1 [Example 54, N-[4-chloro-3-(trifluoromethyl)phenyl]-N′-{2-[{2-[(2,6-dipyrrolidin-1-ylpyrimidin-4-yl)amino]ethyl}(methyl)amino]ethyl}thiourea] as the compound, how does the melting point read?
Answer: The melting point was 117 to 119 °C.

Question: And the IC50 [1]?
Answer: Its IC50 is at most 5 µM.

Question: What does the source list for CN(CCNC(=S)Nc1ccc(Cl)c(Cl)c1)CCNc1cc(N2CCCC2)nc(N2CCCC2)n1 [Example 55, N-(3,4-dichlorophenyl)-N′-{2-[{2-[(2,6-dipyrrolidin-1-ylpyrimidin-4-yl)amino]ethyl}(methyl)amino]ethyl}thiourea]?
Answer: melting point: 148 to 150 °C; IC50 [1]: ≤ 5 µM

Question: Which melting point does the source give for CN(CCNC(=S)Nc1ccc(Cl)c(F)c1)CCNc1cc(N2CCCC2)nc(N2CCCC2)n1 [Example 56, N-(4-chloro-3-fluorophenyl)-N′-{2-[{2-[(2,6-dipyrrolidin-1-ylpyrimidin-4-yl)amino]ethyl}(methyl)amino]ethyl}thiourea] here?
Answer: Its melting point is 146 to 148 °C.

Question: What about the IC50 [1] of the same compound?
Answer: The IC50 was at most 5 µM.

Question: For S=C(NCCCCCNc1cc(N2CCCC2)nc(N2CCCC2)n1)Nc1ccc(Cl)cc1 [Example 58, N-(4-chlorophenyl)-N′-{5-[(2,6-dipyrrolidin-1-ylpyrimidin-4-yl)amino]pentyl}thiourea], which melting point is on record?
Answer: The melting point was 80 to 82 °C.

Question: What about the IC50 [1] of the same compound?
Answer: The IC50 was at most 5 µM.

Question: Which results are given for CNS(=O)(=O)c1ccc(NC(=S)NCCN(C)CCNc2cc(N3CCCC3)nc(N3CCCC3)n2)cc1 [Example 59, 4-{[({2-[{2-[(2,6-dipyrrolidin-1-ylpyrimidin-4-yl)amino]ethyl}(methyl)amino]ethyl}amino)carbonothioyl]amino}-N-methylbenzenesulfonamide]?
Answer: melting point: 102 to 104 °C; IC50 [1]: ≤ 1 µM

Question: What does the source list for CN(CCNC(=S)Nc1ccc(S(N)(=O)=O)cc1)CCNc1cc(N2CCCC2)nc(N2CCCC2)n1 [Example 61, 4-{[({2-[{2-[(2,6-dipyrrolidin-1-ylpyrimidin-4-yl)amino]ethyl}(methyl)amino]ethyl}amino)carbonothioyl]amino}benzenesulfonamide]?
Answer: melting point: 140 °C; IC50 [1]: ≤ 1 µM

Question: Which melting point does the source give for CN(CCNC(=S)Nc1ccc(F)c(F)c1)CCNc1cc(N2CCCC2)nc(N2CCCC2)n1 [Example 67, N-(3,4-difluorophenyl)-N′-{2-[{2-[(2,6-dipyrrolidin-1-ylpyrimidin-4-yl)amino]ethyl}(methyl)amino]ethyl}thiourea] here?
Answer: Its melting point is 133 to 135 °C.

Question: What about the IC50 [1] of the same compound?
Answer: The IC50 was at most 1 µM.

Question: Which results are given for CN(CCNC(=S)Nc1ccc(C#N)cc1)CCNc1cc(N2CCCC2)nc(N2CCCC2)n1 [Example 77, N-(4-cyanophenyl)-N′-{2-[{2-[(2,6-dipyrrolidin-1-ylpyrimidin-4-yl)amino]ethyl}(methyl)amino]ethyl}thiourea]?
Answer: melting point: 107 to 109 °C; IC50 [1]: ≤ 1 µM

Question: With COc1ccc(C(=O)NC(=S)NCCN(C)CCNc2cc(N3CCCC3)nc(N3CCCC3)n2)cc1 [Example 80, N-[({2-[{2-[(2,6-dipyrrolidin-1-ylpyrimidin-4-yl)amino]ethyl}(methyl)amino]ethyl}amino)carbonothioyl]-4-methoxybenzamide] as the compound, how does the melting point read?
Answer: The melting point was 171 to 173 °C.

Question: What about the IC50 [1] of the same compound?
Answer: Its IC50 is at most 5 µM.

Question: For CN(CCNC(=NC#N)Nc1ccc(Cl)cc1)CCNc1cc(N2CCCC2)nc(N2CCCC2)n1 [Example 81, N-(4-chlorophenyl)-N″-cyano-N′-{2-[{2-[(2,6-dipyrrolidin-1-ylpyrimidin-4-yl)amino]ethyl}(methyl)amino]ethyl}guanidine], which melting point is on record?
Answer: Its melting point is 120 to 122 °C.

Question: What about the IC50 [1] of the same compound?
Answer: The IC50 was at most 1 µM.

Question: What does the source list for CN(CCNC(=O)c1ccc(C(=O)c2ccccc2)cc1)CCNc1cc(N2CCCC2)nc(N2CCCC2)n1 [Example 83, 4-benzoyl-N-{2-[{2-[(2,6-dipyrrolidin-1-ylpyrimidin-4-yl)amino]ethyl}(methyl)amino]ethyl}benzamide]?
Answer: melting point: 119 to 121 °C; IC50 [1]: ≤ 5 µM
